Values joined by “and” are separate entries in the source; they are usually repeats but may differ in a detail not shown here. Identical values can stand only once. “Also recorded” adds a separate entry of the source.
Assays:
diaphorase [1] = assay: Effect of concentrations of tetrazolium salts on formation of formazan dyes (FIGS. 4A-4G); format: biochemical; details: 15 mM NADH+H, 20 μg diaphorase, pH 7.5; FIGS. 4A to 4G
Experimental: On the idea that higher concentrations of tetrazolium salts in the assay buffer would likely result in more formazan dyes in the reaction, various concentrations of tetrazolium salts were added to a reaction buffer and the formation of formazan dyes were measured at 0, 30 and 60 minutes. […] The reactions were performed at room temperature. Absorbance was taken at 0, 30 and 60 minutes.

diaphorase [2] = assay: Formation of formazan dyes: only diaphorase, not malate (TABLE 13); format: biochemical, Clostridium kluyveri; details: mean of three experiments
[3] = system: Malate dehydrogenase and diaphorase; assay: Formation of formazan dyes: Malate dehydrogenase and diaphorase, absence of malate (TABLE 9); format: biochemical, pig heart
diaphorase [4] = assay: Formation of formazan dyes: NADH, diaphorase and malate (TABLE 8); format: biochemical, Clostridium kluyveri
Malate dehydrogenase [5] = target: T1, Malate dehydrogenase (Sus scrofa, UniProt P00346); assay: Formation of formazan dyes: Malate dehydrogenase and 1-Methoxy PMS, absence of malate (TABLE 17); format: biochemical, pig heart; set-up: L-malate dehydrogenase (pig heart); purchased Sigma-Aldrich 10127248001 / 10127914001
T1 sequence (P00346 25-338): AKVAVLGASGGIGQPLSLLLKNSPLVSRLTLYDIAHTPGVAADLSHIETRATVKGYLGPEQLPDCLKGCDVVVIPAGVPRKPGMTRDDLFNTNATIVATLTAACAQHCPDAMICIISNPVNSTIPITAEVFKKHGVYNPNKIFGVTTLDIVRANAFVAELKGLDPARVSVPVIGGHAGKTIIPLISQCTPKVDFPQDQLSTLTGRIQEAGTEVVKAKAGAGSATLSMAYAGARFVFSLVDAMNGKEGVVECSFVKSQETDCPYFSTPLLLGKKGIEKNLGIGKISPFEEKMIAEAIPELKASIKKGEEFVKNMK

diaphorase [6] = assay: Formation of formazan dyes: NADH and diaphorase, absence of malate (TABLE 7); format: biochemical, Clostridium kluyveri; details: NADH and diaphorase, absence of malate
diaphorase [7] = assay: Formation of formazan dyes: only diaphorase and malate (TABLE 14); format: biochemical, Clostridium kluyveri; details: mean of three experiments
[8] = Formation of formazan dyes: control buffer, malate and 1-Methoxy PMS (TABLE 22); format: biochemical
oral lavage [9] = assay: Formation of formazan dyes: oral lavage and 1-Methoxy PMS, absence of malate (TABLE 19); format: biochemical, human; details: monosodium salt
oral lavage [10] = assay: Formation of formazan dyes: oral lavage, malate and diaphorase (TABLE 12); format: biochemical, human; details: oral lavage, malate and diaphorase
[11] = Formation of formazan dyes: NADH and 1-methoxy PMS, absence of malate (TABLE 15); format: biochemical; details: monosodium salt
oral lavage [12] = assay: Formation of formazan dyes: oral lavage, malate and 1-Methoxy PMS (TABLE 20); format: biochemical, human; details: monosodium salt
[13] = system: Malate dehydrogenase and diaphorase; assay: Formation of formazan dyes: Malate dehydrogenase, diaphorase and malate (TABLE 10); format: biochemical, pig heart
[14] = Formation of formazan dyes: control buffer and 1-Methoxy PMS, absence of malate (TABLE 21); format: biochemical; details: monosodium salt
Malate dehydrogenase [15] = target: T1, Malate dehydrogenase; assay: Formation of formazan dyes: Malate dehydrogenase, malate and 1-Methoxy PMS (TABLE 18); format: biochemical, pig heart; set-up: L-malate dehydrogenase (pig heart); purchased Sigma-Aldrich 10127248001 / 10127914001; details: monosodium salt
[16] = Formation of formazan dyes: NADH, malate and 1-methoxy PMS (TABLE 16); format: biochemical; details: monosodium salt
oral lavage [17] = assay: Formation of formazan dyes: oral lavage and diaphorase, not malate (TABLE 11); format: biochemical, human

Question: For `COc1cc([N+](=O)[O-])ccc1-[n+]1nc(-c2ccccc2S(=O)(=O)O)nn1-c1ccc([N+](=O)[O-])cc1` [EZMTT], which “concentration of tetrazolium salt at which absorbance reached peaks” value (diaphorase [1]) is on record?
Answer: The value was 2 mM.

Question: Which results are given for `O=[N+]([O-])c1ccc(-[n+]2nc(-c3ccc(S(=O)(=O)[O-])cc3S(=O)(=O)[O-])nn2-c2ccc(I)cc2)cc1.[Na+]` [WST-1, 2-(4-Iodophenyl)-3-(4-nitrophenyl)-5-(2,4-disulfophenyl)-2H-tetrazolium, monosodium salt]?
Answer: Absorbance, formation of formazan dyes (Means) (diaphorase [2]; 0 h): 0.41; Absorbance, formation of formazan dyes (Means) (diaphorase [2]; 1 h): 0.60; Absorbance, formation of formazan dyes (Means) (diaphorase [2]; 2 h): 0.66; Absorbance, formation of formazan dyes (Means) (diaphorase [2]; 3 h): 0.69; Absorbance, formation of formazan dyes (Means) (diaphorase [2]; 4 h): 0.70; Absorbance, formation of formazan dyes (Means) (diaphorase [2]; 6 h): 0.71; Absorbance, formation of formazan dyes (Means) (diaphorase [2]; 8 h): 0.73; Absorbance, formation of formazan dyes (Means) (diaphorase [2]; 10 h): 0.69; Absorbance, formation of formazan dyes (Means) (diaphorase [2]; 12 h): 0.67; Formation of formazan dyes, absorbance, Means 0 h ([3]; Malate dehydrogenase and diaphorase, absence of malate, 0 h): 0.76; Formation of formazan dyes, absorbance, Means 1 h ([3]; Malate dehydrogenase and diaphorase, absence of malate, 1 h): 1.13; Formation of formazan dyes, absorbance, Means 2 h ([3]; Malate dehydrogenase and diaphorase, absence of malate, 2 h): 1.28; Formation of formazan dyes, absorbance, Means 3 h ([3]; Malate dehydrogenase and diaphorase, absence of malate, 3 h): 1.38; Formation of formazan dyes, absorbance, Means 4 h ([3]; Malate dehydrogenase and diaphorase, absence of malate, 4 h): 1.47; Formation of formazan dyes, absorbance, Means 6 h ([3]; Malate dehydrogenase and diaphorase, absence of malate, 6 h): 1.60; Formation of formazan dyes, absorbance, Means 8 h ([3]; Malate dehydrogenase and diaphorase, absence of malate, 8 h): 1.71; Formation of formazan dyes, absorbance, Means 10 h ([3]; Malate dehydrogenase and diaphorase, absence of malate, 10 h): 1.78; Formation of formazan dyes, absorbance, Means 12 h ([3]; Malate dehydrogenase and diaphorase, absence of malate, 12 h): 1.75; reduction of tetrazolium dye in the absence of substrate malate ([3]; malate dehydrogenase and diaphorase (TABLE 9)): partially reduced; Formation of formazan dyes, absorbance, Means 0 h (diaphorase [4]; NADH, diaphorase and malate, 0 h): 2.63; Formation of formazan dyes, absorbance, Means 1 h (diaphorase [4]; NADH, diaphorase and malate, 1 h): 2.60; Formation of formazan dyes, absorbance, Means 2 h (diaphorase [4]; NADH, diaphorase and malate, 2 h): 2.59; Formation of formazan dyes, absorbance, Means 3 h (diaphorase [4]; NADH, diaphorase and malate, 3 h): 2.57; Formation of formazan dyes, absorbance, Means 4 h (diaphorase [4]; NADH, diaphorase and malate, 4 h): 2.55; Formation of formazan dyes, absorbance, Means 6 h (diaphorase [4]; NADH, diaphorase and malate, 6 h): 2.52; Formation of formazan dyes, absorbance, Means 8 h (diaphorase [4]; NADH, diaphorase and malate, 8 h): 2.48; Formation of formazan dyes, absorbance, Means 10 h (diaphorase [4]; NADH, diaphorase and malate, 10 h): 2.44; Formation of formazan dyes, absorbance, Means 12 h (diaphorase [4]; NADH, diaphorase and malate, 12 h): 2.38; level reduced to formazan dyes in the presence of malate (diaphorase [4]; TABLE 8 compared with TABLE 7): lower level; reduction by malate dehydrogenase alone (Malate dehydrogenase [5]): did not catalyze the reduction; Absorbance, formation of formazan dyes (Means) (Malate dehydrogenase [5]; monosodium salt): 0.51 and 0.71 and 0.59 and 0.90; Formation of formazan dyes, absorbance, Means 0 h (diaphorase [6]; 0 h): 3.54; Formation of formazan dyes, absorbance, Means 1 h (diaphorase [6]; 1 h): 3.60; Formation of formazan dyes, absorbance, Means 2 h (diaphorase [6]; 2 h): 3.59; Formation of formazan dyes, absorbance, Means 3 h (diaphorase [6]; 3 h): 3.60; Formation of formazan dyes, absorbance, Means 4 h (diaphorase [6]; 4 h): 3.59; Formation of formazan dyes, absorbance, Means 6 h (diaphorase [6]; 6 h): 3.59; Formation of formazan dyes, absorbance, Means 8 h (diaphorase [6]; 8 h): 3.55; Formation of formazan dyes, absorbance, Means 10 h (diaphorase [6]; 10 h): 3.52; Formation of formazan dyes, absorbance, Means 12 h (diaphorase [6]; 12 h): 3.45; Absorbance, formation of formazan dyes (Means) (diaphorase [7]; 0 h): 0.20; Absorbance, formation of formazan dyes (Means) (diaphorase [7]; 1 h): 0.22; Absorbance, formation of formazan dyes (Means) (diaphorase [7]; 2 h): 0.23; Absorbance, formation of formazan dyes (Means) (diaphorase [7]; 3 h): 0.24; Absorbance, formation of formazan dyes (Means) (diaphorase [7]; 4 h): 0.24; Absorbance, formation of formazan dyes (Means) (diaphorase [7]; 6 h): 0.25; Absorbance, formation of formazan dyes (Means) (diaphorase [7]; 8 h): 0.26; Absorbance, formation of formazan dyes (Means) (diaphorase [7]; 10 h): 0.27; Absorbance, formation of formazan dyes (Means) (diaphorase [7]; 12 h): 0.27; Means absorbance 0 h [8]: 0.31; Means absorbance 1 h [8]: 0.31; Means absorbance 2 h [8]: 0.32; Means absorbance 3 h [8]: 0.32; Absorbance, formation of formazan dyes (Means) (oral lavage [9]): 1.19 and 1.52 and 1.61 and 1.76; Formation of formazan dyes, absorbance, Means 0 h (oral lavage [10]; 0 h): 0.88; Formation of formazan dyes, absorbance, Means 1 h (oral lavage [10]; 1 h): 1.19; Formation of formazan dyes, absorbance, Means 2 h (oral lavage [10]; 2 h): 1.19; Formation of formazan dyes, absorbance, Means 3 h (oral lavage [10]; 3 h): 1.23; Formation of formazan dyes, absorbance, Means 4 h (oral lavage [10]; 4 h): 1.39; Formation of formazan dyes, absorbance, Means 6 h (oral lavage [10]; 6 h): 1.31; Formation of formazan dyes, absorbance, Means 8 h (oral lavage [10]; 8 h): 1.52; Formation of formazan dyes, absorbance, Means 10 h (oral lavage [10]; 10 h): 1.61; Formation of formazan dyes, absorbance, Means 12 h (oral lavage [10]; 12 h): 1.75; Absorbance, formation of formazan dyes (Means) [11]: 2.52 and 2.71 and 2.59 and 2.80; Absorbance, formation of formazan dyes (Means) (oral lavage [12]): 1.20 and 1.68 and 2.01 and 2.32; Formation of formazan dyes, absorbance, Means 0 h ([13]; Malate dehydrogenase, diaphorase and malate, 0 h): 0.84; Formation of formazan dyes, absorbance, Means 1 h ([13]; Malate dehydrogenase, diaphorase and malate, 1 h): 1.15; Formation of formazan dyes, absorbance, Means 2 h ([13]; Malate dehydrogenase, diaphorase and malate, 2 h): 1.31; Formation of formazan dyes, absorbance, Means 3 h ([13]; Malate dehydrogenase, diaphorase and malate, 3 h): 1.44; Formation of formazan dyes, absorbance, Means 4 h ([13]; Malate dehydrogenase, diaphorase and malate, 4 h): 1.53; Formation of formazan dyes, absorbance, Means 6 h ([13]; Malate dehydrogenase, diaphorase and malate, 6 h): 1.69; Formation of formazan dyes, absorbance, Means 8 h ([13]; Malate dehydrogenase, diaphorase and malate, 8 h): 1.81; Formation of formazan dyes, absorbance, Means 10 h ([13]; Malate dehydrogenase, diaphorase and malate, 10 h): 1.90; Formation of formazan dyes, absorbance, Means 12 h ([13]; Malate dehydrogenase, diaphorase and malate, 12 h): 1.96; conversion to reduced formazan dyes ([13]; malate dehydrogenase, diaphorase and malate (TABLE 10), monosodium salt): converted to reduced formazan dyes in a time-dependent fashion; also recorded: able to catalyze the reduction; Absorbance, formation of formazan dyes (Means) [14]: 0.53 and 0.74 and 0.65 and 0.88; Absorbance, formation of formazan dyes (Means) (Malate dehydrogenase [15]): 0.51 and 0.64 and 0.72 and 0.79; Absorbance, formation of formazan dyes (Means) [16]: 1.83 and 1.81 and 1.79; Formation of formazan dyes, absorbance, Means 0 h (oral lavage [17]; oral lavage and diaphorase, not malate, 0 h): 1.01; Formation of formazan dyes, absorbance, Means 1 h (oral lavage [17]; oral lavage and diaphorase, not malate, 1 h): 1.24; Formation of formazan dyes, absorbance, Means 2 h (oral lavage [17]; oral lavage and diaphorase, not malate, 2 h): 1.28; Formation of formazan dyes, absorbance, Means 3 h (oral lavage [17]; oral lavage and diaphorase, not malate, 3 h): 1.30; Formation of formazan dyes, absorbance, Means 4 h (oral lavage [17]; oral lavage and diaphorase, not malate, 4 h): 1.29; Formation of formazan dyes, absorbance, Means 6 h (oral lavage [17]; oral lavage and diaphorase, not malate, 6 h): 1.42; Formation of formazan dyes, absorbance, Means 8 h (oral lavage [17]; oral lavage and diaphorase, not malate, 8 h): 1.34; Formation of formazan dyes, absorbance, Means 10 h (oral lavage [17]; oral lavage and diaphorase, not malate, 10 h): 1.31; Formation of formazan dyes, absorbance, Means 12 h (oral lavage [17]; oral lavage and diaphorase, not malate, 12 h): 1.42; reduction to formazan dyes by pooled oral lavage (oral lavage [17]; pooled oral lavage of high bleeder group, diaphorase, no added malate (TABLE 11)): partially reduced to formazan dyes

From patent publication US20180320217A1, “METHODS FOR SAMPLING AND MEASURING ORAL LAVAGE PROTEINS” (The Procter & Gamble Company, priority 2017, published 2018)
